{"source": "patent US6136992A", "about": "“2-alkoxy estradiols and derivatives thereof” (The United States of America as represented by the …, priority 1998, dated 2000)", "key": {"SNB-19": {"test_system": "SNB-19", "assay": "NCI screen, CNS cancer", "type": "cell-based", "details": "Homo sapiens, read-out: Log10 GI50, SNB-19 (converted)"}, "SK-MEL-28": {"test_system": "SK-MEL-28", "assay": "NCI screen, melanoma", "type": "cell-based", "details": "Homo sapiens, read-out: Log10 GI50, SK-MEL-28 (converted)"}, "[1]": {"test_system": "DU-145 prostate cancer cells", "assay": "NCI in vitro anticancer screen, DU-145 prostate cancer", "type": "cell-based", "details": "Homo sapiens", "text": "(§1) The effects of the analogs on cancer cell growth was investigated in the National Cancer Institute (NCI) Developmental Therapeutics Program's in vitro panel of approximately 55 cell lines (Grever et al., Seminars in Oncology 19:622 (1992), Alley et al., Cancer Research 48:589 (1988) and Montes et al., J. National Cancer Institute 83:757 (1991)). Representative results are listed in Table 1 for HOP-62 non-small-cell lung cancer cells, HCT-116 colon cancer cells, SF-539 central nervous system (CNS) cancer cells, UACC-62 melanoma cells, OVCAR ovarian cancer cells, SN12-C renal cancer cells, DU-145 prostate cancer cells, and MDA-MB-435 breast cancer cells.\n(§2) ^a The cytotoxicity GI50 values are the concentrations"}, "UO-31": {"test_system": "UO-31", "assay": "NCI screen, renal cancer", "type": "cell-based", "details": "Homo sapiens, read-out: Log10 GI50, UO-31 (converted)"}, "MCF7/ADR-RES": {"test_system": "MCF7/ADR-RES", "assay": "NCI screen, breast cancer", "type": "cell-based", "details": "Homo sapiens, read-out: Log10 GI50, MCF7/ADR-RES (converted)"}, "UACC-62 melanoma cells": {"test_system": "UACC-62 melanoma cells", "assay": "NCI in vitro anticancer screen, UACC-62 melanoma", "type": "cell-based", "details": "Homo sapiens", "text": "as §1, §2"}, "M14": {"test_system": "M14", "assay": "NCI screen, melanoma", "type": "cell-based", "details": "Homo sapiens, read-out: Log10 GI50, M14 (converted)"}, "A549/ATCC": {"test_system": "A549/ATCC", "assay": "NCI screen, non-small cell lung cancer", "type": "cell-based", "details": "Homo sapiens, read-out: Log10 GI50, A549/ATCC (converted)"}, "[2]": {"test_system": "SF-539 central nervous system (CNS) cancer cells", "assay": "NCI in vitro anticancer screen, SF-539 CNS cancer", "type": "cell-based", "details": "Homo sapiens", "text": "as §1, §2"}, "NCIH-522": {"test_system": "NCIH-522", "assay": "NCI screen, non-small cell lung cancer", "type": "cell-based", "details": "Homo sapiens, NCI-H522, read-out: Log10 GI50, NCIH-522 (converted)"}, "HTC-15": {"test_system": "HTC-15", "assay": "NCI screen, colon cancer", "type": "cell-based", "details": "Homo sapiens, read-out: Log10 GI50, HTC-15 (converted)"}, "NCI-H460": {"test_system": "NCI-H460", "assay": "NCI screen, non-small cell lung cancer", "type": "cell-based", "details": "Homo sapiens, read-out: Log10 GI50, NCI-H460 (converted)"}, "[3]": {"test_system": "OVCAR ovarian cancer cells", "assay": "NCI in vitro anticancer screen, OVCAR ovarian cancer", "type": "cell-based", "details": "Homo sapiens, read-out: cytotoxicity GI50, Ovarian OVCAR", "text": "as §1, §2"}, "786-0": {"test_system": "786-0", "assay": "NCI screen, renal cancer", "type": "cell-based", "details": "Homo sapiens, read-out: Log10 GI50, 786-0 (converted)"}, "NCI-H23": {"test_system": "NCI-H23", "assay": "NCI screen, non-small cell lung cancer", "type": "cell-based", "details": "Homo sapiens, read-out: Log10 GI50, NCI-H23 (converted)"}, "SF-295": {"test_system": "SF-295", "assay": "NCI screen, CNS cancer", "type": "cell-based", "details": "Homo sapiens, read-out: Log10 GI50, SF-295 (converted)"}, "SNB-75": {"test_system": "SNB-75", "assay": "NCI screen, CNS cancer", "type": "cell-based", "details": "Homo sapiens, read-out: Log10 GI50, SNB-75 (converted)"}, "MOLT-4": {"test_system": "MOLT-4", "assay": "NCI screen, leukemia", "type": "cell-based", "details": "Homo sapiens, read-out: Log10 GI50, MOLT-4 (converted)"}, "estrogen receptor": {"biological_target": "T1, estrogen receptor (Rattus norvegicus, UniProt P06211)", "T1 construct": "from tissue; host or cells: rat uterine cytosol", "T1 sequence (P06211 1-600)": "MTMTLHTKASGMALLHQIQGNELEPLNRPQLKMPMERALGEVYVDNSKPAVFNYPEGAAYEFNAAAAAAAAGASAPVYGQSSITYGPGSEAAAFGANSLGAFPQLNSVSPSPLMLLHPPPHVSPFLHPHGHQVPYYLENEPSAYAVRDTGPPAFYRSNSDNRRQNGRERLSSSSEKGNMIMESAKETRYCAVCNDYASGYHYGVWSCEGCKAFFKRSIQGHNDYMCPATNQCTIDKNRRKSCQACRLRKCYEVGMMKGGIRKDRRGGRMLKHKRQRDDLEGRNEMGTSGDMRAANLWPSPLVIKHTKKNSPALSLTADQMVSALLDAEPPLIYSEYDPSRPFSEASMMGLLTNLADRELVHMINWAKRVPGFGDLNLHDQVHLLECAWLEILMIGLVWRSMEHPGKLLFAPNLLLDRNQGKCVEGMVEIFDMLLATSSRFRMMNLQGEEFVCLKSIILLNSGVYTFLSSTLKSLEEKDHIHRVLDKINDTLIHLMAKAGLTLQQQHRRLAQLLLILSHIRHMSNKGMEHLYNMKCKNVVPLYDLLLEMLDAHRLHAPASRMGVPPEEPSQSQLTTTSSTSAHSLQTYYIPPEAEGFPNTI", "assay": "Estrogen binding affinity assay (comparative radiometric binding, rat uterine cytosol)", "method": "The assay of (11), (12) and (16) were conducted at 0° C. for 20 hours, while those for (1) and (2) were performed at 0° C. for 18 hours."}, "OVCAR-8": {"test_system": "OVCAR-8", "assay": "NCI screen, ovarian cancer", "type": "cell-based", "details": "Homo sapiens, read-out: Log10 GI50, OVCAR-8 (converted)"}, "[4]": {"test_system": "HOP-62 non-small-cell lung cancer cells", "assay": "NCI in vitro anticancer screen, HOP-62 non-small-cell lung cancer", "type": "cell-based", "details": "Homo sapiens", "text": "as §1, §2"}, "[5]": {"test_system": "all human cancer cell lines (approximately 55)", "assay": "NCI in vitro anticancer screen, all cell lines", "type": "cell-based", "text": "as §1\n^b Mean graph midpoint for all human cancer cell lines (approximately"}, "U251": {"test_system": "U251", "assay": "NCI screen, CNS cancer", "type": "cell-based", "details": "Homo sapiens, U-251, read-out: Log10 GI50, U251 (converted)"}}, "note": "Read-outs that look alike come from different tables or passages of the source."}
{"smiles": "C[C@]12CC[C@@H]3c4cc(OCC(F)(F)F)c(O)cc4C(=NO)C[C@H]3[C@@H]1CC[C@@H]2O", "note": "[Compound 12, 2-(2',2', 2'-Trifluoroethoxy)-6-Hydroximino-Estra-1,3,5(10)-Triene-3,17β-Diol]", "values": [{"measurement": "GI50", "setting": "SNB-19", "value": "< 10", "unit": "nM"}, {"measurement": "GI50", "setting": "SK-MEL-28", "value": "< 10", "unit": "nM"}, {"measurement": "GI50", "setting": "[1]; DU-145, read-out: cytotoxicity GI50, Prostate DU-145", "value": "< 10", "unit": "nM"}, {"measurement": "GI50", "setting": "[1]; DU-145, Prostate Cancer, read-out: Log10 GI50, DU-145 (converted)", "value": "< 10", "unit": "nM"}, {"measurement": "GI50", "setting": "UO-31", "value": "< 10", "unit": "nM"}, {"measurement": "GI50", "setting": "MCF7/ADR-RES", "value": "< 10", "unit": "nM"}, {"measurement": "GI50", "setting": "UACC-62 melanoma cells; UACC-62, read-out: cytotoxicity GI50, Melanoma UACC-62", "value": "< 10", "unit": "nM"}, {"measurement": "GI50", "setting": "UACC-62 melanoma cells; UACC-62, Melanoma, read-out: Log10 GI50, UACC-62 (converted)", "value": "< 10", "unit": "nM"}, {"measurement": "GI50", "setting": "M14", "value": "< 10", "unit": "nM"}, {"measurement": "GI50", "setting": "A549/ATCC", "value": "< 10", "unit": "nM"}, {"measurement": "GI50", "setting": "[2]; SF-539, CNS Cancer, read-out: Log10 GI50, SF-539 (converted)", "value": "< 10", "unit": "nM"}, {"measurement": "GI50", "setting": "[2]; read-out: cytotoxicity GI50, CNS SF-539", "value": "< 10", "unit": "nM"}, {"measurement": "GI50", "setting": "NCIH-522", "value": "< 10", "unit": "nM"}, {"measurement": "GI50", "setting": "HTC-15", "value": "< 10", "unit": "nM"}, {"measurement": "GI50", "setting": "NCI-H460", "value": "< 10", "unit": "nM"}, {"measurement": "GI50", "setting": "[3]", "value": "< 10", "unit": "nM"}, {"measurement": "GI50", "setting": "786-0", "value": "< 10", "unit": "nM"}, {"measurement": "GI50", "setting": "NCI-H23", "value": "< 10", "unit": "nM"}, {"measurement": "GI50", "setting": "SF-295", "value": "< 10", "unit": "nM"}, {"measurement": "GI50", "setting": "SNB-75", "value": "< 10", "unit": "nM"}, {"measurement": "GI50", "setting": "MOLT-4", "value": "< 10", "unit": "nM"}, {"measurement": "affinity for the estrogen receptor, in words", "setting": "estrogen receptor", "value": "very week affinity for the receptor"}, {"measurement": "GI50", "setting": "OVCAR-8", "value": "< 10", "unit": "nM"}, {"measurement": "GI50", "setting": "[4]; HOP-62, read-out: cytotoxicity GI50, Lung HOP-62", "value": "< 10", "unit": "nM"}, {"measurement": "GI50", "setting": "[4]; HOP-62, Non-Small Cell Lung Cancer, read-out: Log10 GI50, HOP-62 (converted)", "value": "< 10", "unit": "nM"}, {"measurement": "GI50", "setting": "[5]; 10^-8 molar is the lowest concentration normally investigated, read-out: GI50", "value": "< 10", "unit": "nM"}, {"measurement": "GI50", "setting": "[5]; approximately 55 cell lines, read-out: MGM (mean graph midpoint for all human cancer cell lines), GI50", "value": 10, "unit": "nM"}, {"measurement": "GI50", "setting": "[5]; average of all cell lines of Table 2, read-out: Log10 GI50, Average (all cell lines) (converted)", "value": "< 10", "unit": "nM"}, {"measurement": "GI50", "setting": "U251", "value": "< 10", "unit": "nM"}]}
